Melting point and IC50 data for 13 compounds are collected here from US20110015248A1, “SUBSTITUTED HETEROCYCLES” (INTERMED DISCOVERY GMBH, priority 2003, published 2011).

Tested on in one series: not given
Assay: not given
Conditions: not given
On to `CCCCCC[C@H]1C(=O)N[C@](C(=O)SCCNC(C)=O)([C@@H](O)[C@@H]2C=CCCC2)[C@@]1(C)O` (stereo in doubt), for which the melting point (commonly the temperature, or range, at which the solid turns liquid) worked out at 82 °C. On the same count and under the same terms, in the case of `CCCCCC[C@H]1C(=O)N[C@](C(=O)SCCC(=O)OC)([C@@H](O)C2CCCCC2)[C@@]1(C)O` (stereo in doubt) it was 132 °C; in that of `CCCCCC[C@H]1C(=O)N[C@](C(=O)SCc2ccccc2)([C@@H](O)[C@@H]2C=CCCC2)[C@@]1(C)O` (stereo in doubt), 138 °C; in that of `CCCCCC[C@H]1C(=O)N[C@](C(=O)SCc2ccccc2)([C@@H](O)C2CCCCC2)[C@@]1(C)O` [Example 17, 2-(Cyclohexyl-hydroxy-methyl)-4-hexyl-3-hydroxy-3-methyl-5-oxo-pyrrolidine-2-carbothioic acid S-benzyl ester], 181 °C. The same measure, in the same setting: then `CCCCCC(O)[C@H]1C(=O)N[C@](C(=O)SCc2ccccc2)([C@@H](O)[C@@H]2C=CCCC2)[C@@]1(C)O` (stereo in doubt) [Example 14, 2-(Cyclohex-2-enyl-hydroxy-methyl)-3-hydroxy-4-(1-hydroxy-hexyl)-3-methyl-5-oxo-pyrrolidine-2-carbothioic acid S-benzyl ester], with 123 °C; and `CCCCCC[C@H]1C(=O)N[C@](C(=O)SC2CCCCC2)([C@@H](O)[C@@H]2C=CCCC2)[C@@]1(C)O` (stereo in doubt), with 85 °C; and `CCCCCC[C@H]1C(=O)N[C@](C(=O)SCCC(=O)OC)([C@@H](O)[C@@H]2C=CCCC2)[C@@]1(C)O` [Example 12, 3-[2-(Cyclohex-2-enyl-hydroxy-methyl)-4-hexyl-3-hydroxy-3-methyl-5-oxo-pyrrolidine-2-carbonylsulfanyl]-propionic acid methyl ester], with 64 °C. As for `CCCCCC(O)[C@H]1C(=O)N[C@@]2(C(O)[C@@H]3C=CCCC3)C(=O)O[C@@]12C` (stereo partly drawn), the melting point worked out at 144 °C. On the same count and under the same terms, then `CCCCCC[C@H]1C(=O)N[C@@]2([C@@H](O)C3CCCCC3)C(=O)O[C@@]12C` (stereo in doubt), with 167 °C; and `CCCCCC(O)[C@H]1C(=O)N[C@](C(=O)SCCNC(C)=O)([C@@H](O)[C@@H]2C=CCCC2)[C@@]1(C)O` (stereo in doubt), with 80 °C; and `CCCCCC(O)[C@H]1C(=O)N[C@](C(=O)SCC(=O)OC)([C@@H](O)[C@@H]2C=CCCC2)[C@@]1(C)O` (stereo in doubt), with 75 °C.

Another series addresses T1, Human red blood cell S20 proteasome (Homo sapiens, UniProt P28074).
T1 construct: host or cells: human red blood cells (native tissue preparation)
In words: Proteasome inhibition assay.
Conditions: not given
The format is biochemical. How it is done: The test compound is diluted at various concentrations in 2.5% DMSO in a polypropylene 96 well plate. […] The diluted working solution (10 μl/well) is transferred into a polypropylene 96 well plate. The assay buffer consists of 50 mM Tris-HCl (pH 8.0), 0.5 mM EDTA, 0.005% TritonX-100, 0.005% SDS, prepared as a stock solution at 10× concentration. The peptide substrate (Suc-Leu-Leu-Val-Tyr-MCA; 3120v; Peptide Institute; Osaka, Japan) is stored at 10 mM in 100% DMSO. […] The compound and the substrate are preincubated for 10 min at room temperature. Then the mixture of the compound and the substrate (10 μl/well) is transferred to a black non-coated 384 well assay plate (Nunc) and autofluorescence emission is measured at 460 nm (λex, 360 nm) by using a ARVO fluorescence plate leader (Perkin Elmer, Tokyo, Japan).
Human red blood cell S20 proteasome are obtained from Affinity research products Ltd (Cat#PW8720; Exeter, UK) and stored at −80° C. The proteasome is diluted 1 in 1000 with 1× concentration of the assay buffer and 10 μl is added to the substrates and the inhibitor mixture in the plate. The proteolytic reaction is performed at room temperature. The fluorescence emission is continuously measured for 90 min. IC50 values of the compounds are determined at initial velocity of the reaction.
As for `CCCCCC[C@H]1C(=O)N[C@@]2([C@@H](O)[C@@H]3C=CCCC3)C(=O)O[C@@]12C` [Example 1, (1R,4R,5S)-1-[(S)-(1S)-2-cyclohexen-1-yl(hydroxy)methyl]-4-hexyl-5-methyl-6-oxa-2-aza-bicyclo[3.2.0]heptane-3,7-dione], half-maximal inhibition (IC50) required 1 nM.

In the case of `CCCCCC[C@H]1C(=O)N[C@](C(=O)SCCC(=O)OC)([C@@H](O)[C@@H]2C=CCCC2)[C@@]1(C)O` [Example 12, 3-[2-(Cyclohex-2-enyl-hydroxy-methyl)-4-hexyl-3-hydroxy-3-methyl-5-oxo-pyrrolidine-2-carbonylsulfanyl]-propionic acid methyl ester], the midpoint of inhibition, the IC50, lay at 0.2 nM.

Staying with this series, now noted: substrate Suc-Leu-Leu-Val-Tyr-MCA; room temperature; IC50 determined at initial velocity of the reaction; read-out: IC50.
Take `CCCCCC(O)[C@H]1C(=O)N[C@](C(=O)O)(C(O)[C@@H]2C=CCCC2)[C@@]1(C)O` (stereo partly drawn) [Example 4, (3S,4R)-2-[(S)-(1S)-2-cyclohexen-1-yl(hydroxy)methyl]-3-hydroxy-4-[1-hydroxy-hexyl]-3-methyl-5-oxo-D-proline]: the IC50 (in general, the concentration at which inhibition is half-maximal) was 305 nM. The same measure, in the same setting: then `CCCCCC[C@H]1C(=O)N[C@](C(=O)SCc2ccccc2)([C@@H](O)C2CCCCC2)[C@@]1(C)O` [Example 17, 2-(Cyclohexyl-hydroxy-methyl)-4-hexyl-3-hydroxy-3-methyl-5-oxo-pyrrolidine-2-carbothioic acid S-benzyl ester], with 106 nM.
